Active and inactive are the calls of the source. The calls are words filed in the database; no cut-off is given here. Numbered stars: 1 amine (or outer) side, 2 acyl side, 3 side chain; on linkers, the order of the positions; unused ones are H or OH. Bridge positions count the residues as written; N and C are the ends. Peptide text beside a SMILES is read from it. X1 = CC(C)(CC(=O)[*:1])S[*:2]
Tests used:
[1] = system: Rattus norvegicus; test: Antidiuretic acitivity in water-loaded Wistar rat assessed as inhibition of AVP-mediated decrease in urine flow at 100 ug/kg, iv; type: functional, organism-based
[2] = target: Vasopressin V1a receptor (Rattus norvegicus) (UniProt P30560); test: Antagonist activity at vasopressin V1a receptor in rat thoracic aorta assessed as inhibition of AVP-induced vascular smooth muscle contraction; type: tissue-based
[3] = target: Vasopressin V1a receptor (Rattus norvegicus) (UniProt P30560); test: Antagonist activity at vasopressin V1a receptor in rat thoracic aorta assessed as inhibition of AVP-induced vascular smooth muscle contraction at 5.9 uM; type: tissue-based
[4] = target: Vasopressin V1a receptor (Rattus norvegicus) (UniProt P30560); test: Antagonist activity at vasopressin V1a receptor in rat thoracic aorta assessed as inhibition of AVP-induced vascular smooth muscle contraction at 590 uM; type: tissue-based
[5] = target: Vasopressin V1a receptor (Rattus norvegicus) (UniProt P30560); test: Antagonist activity at vasopressin V1a receptor in rat thoracic aorta assessed as inhibition of AVP-induced vascular smooth muscle contraction at 59 uM; type: tissue-based
[6] = target: Vasopressin V1a receptor (Rattus norvegicus) (UniProt P30560); test: Antagonist activity at vasopressin V1a receptor in endothelium-denuded rat thoracic aorta assessed as inhibition of AVP-induced vascular smooth muscle contraction at 10 uM
[7] = target: Vasopressin V1a receptor (Rattus norvegicus) (UniProt P30560); test: Antagonist activity at vasopressin V1a receptor in endothelium intact rat thoracic aorta assessed as inhibition of AVP-induced vascular smooth muscle contraction at 10 uM

Chain of Vasopressin V1a receptor (Rattus norvegicus) (P30560 whole entry, looked up): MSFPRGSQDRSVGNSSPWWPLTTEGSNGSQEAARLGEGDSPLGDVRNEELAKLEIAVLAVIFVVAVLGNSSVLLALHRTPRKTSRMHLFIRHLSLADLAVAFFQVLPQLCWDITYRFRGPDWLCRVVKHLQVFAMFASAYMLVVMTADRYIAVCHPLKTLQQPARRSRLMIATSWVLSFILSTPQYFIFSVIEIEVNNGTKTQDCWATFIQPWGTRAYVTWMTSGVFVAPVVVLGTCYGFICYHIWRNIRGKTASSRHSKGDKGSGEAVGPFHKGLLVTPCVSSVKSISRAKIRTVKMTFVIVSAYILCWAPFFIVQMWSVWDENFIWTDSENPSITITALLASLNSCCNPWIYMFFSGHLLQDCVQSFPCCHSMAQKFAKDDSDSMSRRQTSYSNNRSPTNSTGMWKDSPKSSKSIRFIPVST

Row | Structure (SMILES) | inhibition [1] | inhibition [2] | inhibition [3] [%] | inhibition [4] | inhibition [5] [%] | inhibition [6] | inhibition [7]
1 | Cc1ccc(S(=O)(=O)N2CCC(C#N)C(=O)c3ccccc32)cc1 (configuration not stated) | Active | Dose-dependent effect | 25 | Active | 70 | – | –
2 | COc1ccc(C[C@@H]2NC(=O)CC(C)(C)SSC[C@@H](C(=O)N3CCC[C@H]3C(=O)N[C@@H](CCCN=C(N)N)C(=O)NCC(N)=O)NC(=O)[C@H](CC(N)=O)NC(=O)[C@H](CCC(N)=O)NC(=O)[C@H](Cc3ccccc3)NC2=O)cc1 (Y(Me)FQNCPRG-NH2; linker N-5 via X1) | – | – | – | – | – | Active | Active

Reference: ChEMBL document CHEMBL2429836, “Theoretical studies, synthesis, and biological activity of 1-[(4-methylphenyl)sulfonyl]-5-oxo-2,3,4,5-tetrahydro-1H-1-benzazepine-4-carbonitrile (C9) as a non-peptide antagonist of the arginine vasopressin V1a and V2 receptors” (Med Chem Res, 2013)
